This note sets out measurements from US20240366594A1, “Small Molecule Inhibitors of Formation of Neutrophil-Derived Extracellular Traps (NETosis) and Uses Thereof” (The Brigham and Women's Hospital, Inc., priority 2021, published 2024).

The test system of one experiment is human neutrophils. In words: Citrullinated histone H3 (CitH3) NET induction in PMA-stimulated human neutrophils. Type of experiment: cell-based. Particulars: for NETosis (anti-CitH3 signal), comparison of class I/IIb and class IIb selective inhibitors: drugs 10, 2, 0.4, 0.08 μM 1 hour, then 1 μM PMA 3 hours, FIG. 5F. The procedure:
FIGS. 1A-H. Class I/II HDACs drive NET formation • (A and B) Freshly purified human (A) or mouse (B) neutrophils were treated with the indicated HDAC inhibitors at different doses (10, 2, 0.4, 0.08 μM), or with GSK484 (10 μM), for 1 h and then stimulated with 1 μM PMA for 3 h. Cells were fixed and stained with anti-citrullinated histone H3 (CitH3) antibody. NETosis induction was measured as the level of anti-CitH3 fluorescent signal. PMA alone represents 100% of NET induction. “-”: Cells treated with the highest dose of the indicated drug but not activated with PMA. • (C and D) Human neutrophils were treated, or not, with ricolinostat or GSK484 and then stimulated with 1 μM PMA. NETosis induction was measured as area of nuclei stained with DAPI. (C) 3D reconstruction of nuclei in each treatment (grid size 7.8 μm). (D) Quantification of DAPI signal from multiple fields of view (D) (n=9 for unstimulated, not pretreated with any drug [NT] and ricolinostat, n=7 for GSK484). • (E and F) Human neutrophils were treated as in (C-D), and immunoblot analysis of the indicated proteins was performed. Relative quantification of band intensity was analyzed with ImageJ software (F). White violins plots depict the quantification of histone H3 acetylation; red violin plots depict the quantification of histone H3 citrullination. Immunoblot in E is representative of four independent experiments. Gasdermin D NT, gasdermin D N terminal; pMLKL, phospho-MLKL. • (G) Human (left) or murine (right) neutrophils were treated, or not, with ricolinostat (10 μM) and then stimulated with 1 μM PMA for 3 h. ROS production was measured by luminescence with luminol-HRP. Histograms represent the total amount of ROS produced overtime. • (H) Murine neutrophils were treated, or not, with ricolinostat (10 μM) and then stimulated with fluorescent E. coli at the indicated multiplicity of infection (MOI) for 1 h. The histogram represents the percentage of neutrophils positive for E. coli staining. Graphs show mean±SEM. Statistics were calculated using one-way ANOVA (A, B, D) and two-way ANOVA (F, G, H) (*p<0.05; **p<0.01; ****p<0.0001. n.s., not significant). Statistics refers to the comparison with neutrophils stimulated with PMA alone (A, B). Gray stars represent comparison of all experimental groups with the unstimulated control, and black stars represent comparison between drug-treated groups and cells treated with PMA only (NT) (D). See also FIGS. 5A-J.
FIGS. 5A-J. Class I/II HDACs drive NET formation. • A) Quantification of extracellular DNA released by neutrophils treated, or not, with 1 μM GSK484 for 1 h and then stimulated with 1 μM PMA for 4 hours. Unstimulated, neutrophils not treated with drugs were used as a control. • B) Freshly purified human neutrophils were treated with the indicated HDAC inhibitors at different doses (0.08, 0.4, 2 and 10 μM) for 1 hour. Extracellular DNA release was assessed in the supernatant 3 hours after PMA stimulation. The dotted line represents the amount of DNA released from neutrophils treated with PMA alone. “-”: cells treated with the highest dose of the indicated drug but not activated with PMA. • C) Freshly purified human neutrophils were stimulated for 1 h, 3 h or 5 h. Cells were fixed and stained with an anti-CitH3 antibody. NETosis induction was measured as level of anti-CitH3 fluorescent signal. 5h-PMA treatment represents 100% NET induction. • D) Representative images of freshly isolated human neutrophils treated or not with 10 μM of the indicated drugs and stimulated with 1 μM PMA for 3 hours. Cells were fixed and then stained for CitH3 (red) and nuclei (blue). Scale bar=100 μm. • E) Murine neutrophils were treated with ricolinostat or GSK484 and then stimulated with […] for 3 hours. NET induction was measured as in (C). […]

Another experiment concerns mouse neutrophils. In words: Citrullinated histone H3 (CitH3) NET induction in PMA-stimulated mouse neutrophils. The experiment is classed as cell-based. The procedure: FIGS. 1A-H. Class I/II HDACs drive NET formation • (A and B) Freshly purified human (A) or mouse (B) neutrophils were treated with the indicated HDAC inhibitors at different doses (10, 2, 0.4, 0.08 μM), or with GSK484 (10 μM), for 1 h and then stimulated with 1 μM PMA for 3 h. Cells were fixed and stained with anti-citrullinated histone H3 (CitH3) antibody. NETosis induction was measured as the level of anti-CitH3 fluorescent signal. PMA alone represents 100% of NET induction. “-”: Cells treated with the highest dose of the indicated drug but not activated with PMA. • (C and D) Human neutrophils were treated, or not, with ricolinostat or GSK484 and then stimulated with 1 μM PMA. NETosis induction was measured as area of nuclei stained with DAPI. (C) 3D reconstruction of nuclei in each treatment (grid size 7.8 μm). (D) Quantification of DAPI signal from multiple fields of view (D) (n=9 for unstimulated, not pretreated with any drug [NT] and ricolinostat, n=7 for GSK484). • (E and F) Human neutrophils were treated as in (C-D), and immunoblot analysis of the indicated proteins was performed. Relative quantification of band intensity was analyzed with ImageJ software (F). White violins plots depict the quantification of histone H3 acetylation; red violin plots depict the quantification of histone H3 citrullination. Immunoblot in E is representative of four independent experiments. Gasdermin D NT, gasdermin D N terminal; pMLKL, phospho-MLKL. • (G) Human (left) or murine (right) neutrophils were treated, or not, with ricolinostat (10 μM) and then stimulated with 1 μM PMA for 3 h. ROS production was measured by luminescence with luminol-HRP. Histograms represent the total amount of ROS produced overtime. • (H) Murine neutrophils were treated, or not, with ricolinostat (10 μM) and then stimulated with fluorescent E. coli at the indicated multiplicity of infection (MOI) for 1 h. The histogram represents the percentage of neutrophils positive for E. coli staining. Graphs show mean±SEM. Statistics were calculated using one-way ANOVA (A, B, D) and two-way ANOVA (F, G, H) (*p<0.05; **p<0.01; ****p<0.0001. n.s., not significant). Statistics refers to the comparison with neutrophils stimulated with PMA alone (A, B). […]
FIGS. 5A-J. Class I/II HDACs drive NET formation. • A) Quantification of extracellular DNA released by neutrophils treated, or not, with 1 μM GSK484 for 1 h and then stimulated with 1 μM PMA for 4 hours. […] Extracellular DNA release was assessed in the supernatant 3 hours after PMA stimulation. […] NETosis induction was measured as level of anti-CitH3 fluorescent signal. […] NET induction was measured as in (C). […]

In the case of `O=C(CCCCCCNC(=O)c1cnc(N(c2ccccc2)c2ccccc2Cl)nc1)NO` [citarinostat], the “NET formation (level of CitH3), two independent donors” value in the experiment on human neutrophils (10, 2, 0.4, 0.08 μM for 1 h, then 1 μM PMA, FIGS. 5H, 5I) is reported as “inhibited NET formation to a comparable extent”. For the same molecule, the “NET formation (level of CitH3)” value in the experiment on mouse neutrophils (murine neutrophils, PMA, FIG. 5J) was “inhibited NET formation to a comparable extent”.

On to `Nc1ccccc1NC(=O)c1ccc(CNC(=O)OCc2cccnc2)cc1` [entinostat], for which the “NET induction, measured as CitH3 staining” value in the experiment with human neutrophils (drugs 10, 2, 0.4, 0.08 μM or GSK484 10 μM for 1 h, then 1 μM PMA 3 h, FIGS. 1A and 5D) is on record as “prevented NET release in a dose-dependent manner with an efficacy comparable with GSK484”. The “release of CitH3 (NET induction)” value with mouse neutrophils (drugs 10, 2, 0.4, 0.08 μM for 1 h, then 1 μM PMA 3 h, FIG. 1B) is “no effect”.

As for `CCCCN(Cc1ccc(C(=O)NO)cc1)C(=O)Nc1ccccc1` [nexturastat], the “NETosis (anti-CitH3 signal), comparison of class I/IIb and class IIb selective inhibitors” value with human neutrophils is on record as “selective class IIb targeting did not”.

Consider `O=C(CCCCCCC(=O)Nc1ccc([C@H]2O[C@@H](CSc3nc(-c4ccccc4)c(-c4ccccc4)o3)C[C@@H](c3ccc(CO)cc3)O2)cc1)NO` [tubacin], for which the “NETosis (anti-CitH3 signal), comparison of class I/IIb and class IIb selective inhibitors” value in the experiment on human neutrophils is on record as “class I/IIb HDAC inhibition prevented NETosis”.

`CN1CCc2c(c3ccccc3n2Cc2ccc(C(=O)NO)cc2)C1` [tubastatin A]: the “NETosis (anti-CitH3 signal), comparison of class I/IIb and class IIb selective inhibitors” value with human neutrophils is given as “selective class IIb targeting did not”.
